Measurements reported in EP2794556B1, “BIS-(ARYL/HETEROARYL)-METHYLENE COMPOUNDS, PHARMACEUTICAL COMPOSITIONS CONTAINING SAME AND THEIR USE FOR TREATING CANCER” (Gleason, James L., priority 2011, dated 2013).

Tests used:
[1] = biological target: T1, VDR (Homo sapiens, UniProt P11473); assay: VDR agonism by induction of CYP24 gene expression (RT/PCR); format: cell-based
T1 construct: endogenous in cells; host or cells: SCC25 human head and neck squamous carcinoma cells
T1 sequence (P11473 1-427): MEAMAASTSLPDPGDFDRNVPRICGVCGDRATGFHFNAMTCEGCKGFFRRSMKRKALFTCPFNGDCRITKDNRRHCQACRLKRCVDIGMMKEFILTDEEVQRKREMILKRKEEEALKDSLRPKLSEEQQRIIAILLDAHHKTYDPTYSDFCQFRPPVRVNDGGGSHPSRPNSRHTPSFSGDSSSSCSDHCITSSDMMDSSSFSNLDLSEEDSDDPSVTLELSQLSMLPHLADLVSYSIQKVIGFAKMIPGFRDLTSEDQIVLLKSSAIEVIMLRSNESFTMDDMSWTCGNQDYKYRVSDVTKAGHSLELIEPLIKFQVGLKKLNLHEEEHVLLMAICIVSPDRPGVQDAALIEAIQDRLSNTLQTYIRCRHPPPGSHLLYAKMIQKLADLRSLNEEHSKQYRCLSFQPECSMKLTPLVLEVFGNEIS
Method: Cell culture. Human head and neck squamous carcinoma cell lines SCC4 and SCC45 and mouse HNSCC line AT84 were purchased from American Type Culture Collection (Manassas, VA) and cultured under recommended conditions. Cells were split at 60-70% confluence, as follows: cells were washed with filtered PBS, split with a 5-10 min incubation with 1 ml Trypsin-EDTA (Invitrogen, Carlsbad, CA) in PBS, collected with medium. Following centrifugation, the supernatant was removed. Cell pellets were resuspended with DMEM-F12, and distributed on fresh media-containing dishes. For treatments, AT84 cells were split and 24h later medium was changed to DMEM + 10% charcoal-stripped FBS.
RNA isolation and RT/PCR analysis. […]. Proc. Nat. Acad. Sci. U.S.A. 105, 8250-55. and Lamblin, M.et al Bioorganic & Medicinal Chemistry (2010) 18:4119-4137. After treatment, cells were washed with PBS, homogenized with 1ml TRIzol Reagent (Invitrogen, Carlsbad, CA), kept at room temperature for 2-5 min, collected and kept at -80 °C for at least 1h. After, thawing 0.2 ml chloroform was added. After vigorous mixing and storing for 10min, mixtures were centrifuged (10,000rpm, 15 min, 4 °C) and the upper transparent layer was transferred to a new tube. 0.5 ml isopropanol was added and the new solution was mixed. After centrifuging at 4 °C, the supernatant was discarded and 1ml of 75% ethanol was added. After centrifuging and discarding the supernatant, the pellet was air-dried for 5-10 min, and then dissolved in ddH2O. RNA concentrations were measured using a spectrophotometer, and 1-3µg of RNA were loaded for reverse transcriptase reactions (total volume: 20 µl). 80µl of ddH2O was added to the RT-product, and 1.5µl of that was used as template for the PCR reaction. Reverse transcriptase (Super Script II) was purchased from Invitrogen (Carlsbad, CA). DNA polymerase and dNTP's were ordered from Fermentas (Glen Burnie, MD).
Test compounds (10 µM) were first screened for VDR agonism by analysis of induction of CYP24 gene expression in 1,25D-sensitive human SCC25 cells. […]. Consistent with binding to the VDR, induction of CYP24 by compound JF-B01, compound JF-B53 or compound 16 (JF-B54) was blocked (Fig. 1c). […]

[2] = system: total intracellular HDAC activity in SCC25 cells; assay: HDACi activity with fluorogenic substrate in live cells; format: cell-based, human; settings: increasing concentration, Fig. 2a, b
Source text: (§1) This assay measures the inhibition of total intracellular HDAC activity and determines the capacity of compounds to inhibit HDACs in the form of their naturally occurring complexes.

[3] = system: total intracellular HDAC activity in SCC4 cells; assay: as above; format: cell-based, human; settings: increasing concentration, Fig. 2a, b
Source text: as §1

[4] = system: SCC25 cells; assay: EdU cell growth assay; settings: higher concentrations
Method: (§2) EdU cell growth assay. Click-iT EdU Alexa Fluor high-throughput imaging (HCS) assay for cell proliferation. HCS assays were performed on AT84 mouse squamous carcinoma cell line (ATCC) following the manufacturer's instruction (Molecular Probes, Invitrogen). […] All samples were in triplicate.

[5] = system: SCC4 cells; assay: EdU cell growth assay
Method: as §2

[6] = biological target: HDAC3 (Homo sapiens, UniProt O15379); assay: Fluorogenic HDAC inhibition assay, purified enzyme
HDAC3, sequence (O15379 whole entry, species assumed): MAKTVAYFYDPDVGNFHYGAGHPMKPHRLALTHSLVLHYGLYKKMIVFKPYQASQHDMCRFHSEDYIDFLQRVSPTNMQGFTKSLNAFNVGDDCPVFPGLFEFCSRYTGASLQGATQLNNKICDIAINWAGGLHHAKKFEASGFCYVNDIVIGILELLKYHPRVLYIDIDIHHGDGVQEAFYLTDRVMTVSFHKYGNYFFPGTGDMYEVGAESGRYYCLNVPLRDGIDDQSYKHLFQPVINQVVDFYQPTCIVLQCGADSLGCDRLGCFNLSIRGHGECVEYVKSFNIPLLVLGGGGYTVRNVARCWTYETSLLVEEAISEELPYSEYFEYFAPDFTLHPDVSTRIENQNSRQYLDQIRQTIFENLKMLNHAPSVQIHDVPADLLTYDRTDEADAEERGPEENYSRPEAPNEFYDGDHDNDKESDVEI
HDAC3, sequence (Q9Y618 395-489 partner limits assumed, species assumed): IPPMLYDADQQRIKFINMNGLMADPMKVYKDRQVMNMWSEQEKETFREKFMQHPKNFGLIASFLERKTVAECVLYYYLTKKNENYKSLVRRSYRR
Method: (§3) Fluorogenic HDAC inhibition assay. Boc-Lys(Ac)-7-amino-4-methylcoumarin (Boc-Lys(Ac)-AMC) was used as substrate for the HDAC assays. […] Trypsin was used to stop the reaction, releasing free AMC. The trypsin solution was prepared as follow: trypsin was dissolved in HDAC buffer to give a concentration of 10 mg/mL. Release of AMC was monitored by measuring the fluorescence at 460 nm (lex = 390 nm) with a microplate reader (SpectraMax Gemini) at 37 °C. The AMC signals were recorded against a blank with buffer, substrate and trypsin but without the enzyme. All experiments were carried out at least in triplicate.
(§4) For standard HDAC assays, 50 µL of HDAC buffer was mixed with 10 µL of diluted enzyme solution in HDAC buffer at room temperature. The HDAC reaction was started by adding 40 µL of substrate solution in HDAC buffer followed by 30 min of incubation with stirring at 37 °C. The reaction was stopped by adding 100 µL of trypsin solution. After a 10 min incubation with stirring at 37 °C, the release of AMC was monitored by measuring the fluorescence. For HDAC inhibition assays, inhibitor diluted in 50 µL of HDAC buffer was mixed with 10 µL of diluted enzyme solution in HDAC buffer at room temperature. The HDAC reaction was started by adding 40 µL of substrate solution in HDAC buffer followed by 30 min of incubation with stirring at 37 °C. The reaction was stopped by adding 100 µL of trypsin solution. After a 10 min incubation with stirring at 37 °C, the release of AMC was monitored by measuring the fluorescence.

[7] = biological target: T2, HDAC6 (Homo sapiens, UniProt Q9UBN7); assay: Fluorogenic HDAC inhibition assay, purified enzyme
T2 sequence (Q9UBN7 1-1215): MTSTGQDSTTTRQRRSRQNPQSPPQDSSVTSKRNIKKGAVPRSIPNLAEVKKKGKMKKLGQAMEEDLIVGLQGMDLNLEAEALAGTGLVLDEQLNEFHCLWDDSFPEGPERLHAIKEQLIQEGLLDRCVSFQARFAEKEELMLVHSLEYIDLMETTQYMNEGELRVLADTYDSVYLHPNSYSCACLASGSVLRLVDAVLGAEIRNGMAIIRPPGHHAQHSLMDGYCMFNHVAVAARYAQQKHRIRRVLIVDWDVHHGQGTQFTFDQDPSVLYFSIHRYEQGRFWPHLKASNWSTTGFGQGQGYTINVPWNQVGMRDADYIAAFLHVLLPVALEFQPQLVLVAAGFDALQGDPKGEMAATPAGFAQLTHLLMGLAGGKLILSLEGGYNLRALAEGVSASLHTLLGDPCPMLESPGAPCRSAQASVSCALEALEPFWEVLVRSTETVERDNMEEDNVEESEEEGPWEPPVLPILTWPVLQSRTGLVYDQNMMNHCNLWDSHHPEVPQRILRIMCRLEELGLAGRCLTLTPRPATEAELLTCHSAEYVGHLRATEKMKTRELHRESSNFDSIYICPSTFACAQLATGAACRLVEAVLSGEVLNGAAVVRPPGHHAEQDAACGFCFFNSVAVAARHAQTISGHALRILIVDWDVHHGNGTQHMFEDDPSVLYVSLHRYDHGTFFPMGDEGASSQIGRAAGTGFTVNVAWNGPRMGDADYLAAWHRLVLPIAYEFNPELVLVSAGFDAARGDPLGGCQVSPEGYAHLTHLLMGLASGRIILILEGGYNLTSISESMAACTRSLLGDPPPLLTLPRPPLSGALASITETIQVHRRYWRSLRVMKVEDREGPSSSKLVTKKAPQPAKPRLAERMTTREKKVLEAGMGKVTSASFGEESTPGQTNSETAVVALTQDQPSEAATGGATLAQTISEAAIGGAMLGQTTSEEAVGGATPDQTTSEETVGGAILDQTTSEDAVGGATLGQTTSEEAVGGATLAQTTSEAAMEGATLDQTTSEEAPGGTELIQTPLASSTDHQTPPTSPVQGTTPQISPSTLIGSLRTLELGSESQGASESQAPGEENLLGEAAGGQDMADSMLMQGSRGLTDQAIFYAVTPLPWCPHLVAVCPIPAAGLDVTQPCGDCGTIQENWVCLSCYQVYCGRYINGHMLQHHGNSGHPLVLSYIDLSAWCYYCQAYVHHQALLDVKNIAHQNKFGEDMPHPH
Method: as §3, §4

Question: How did the “induction of CYP24 by the compound was blocked” value ([1]; Fig. 1c, blocking agent not given) turn out when CCC(O)(CC)COc1ccc(C(CC)(CC)c2ccc(OCC(=O)NO)c(C)c2)cc1C [JF-B54, 2-(4-(3-(4-(2-Ethyl-2-hydroxybutoxy)-3-methylphenyl)pentan-3-yl)-2-methylphenoxy)-N-hydroxyacetamide] was run?
Answer: blocked

Question: What about the “VDR agonist activity and potency, induction of CYP24 gene expression” value ([1]; SCC25 cells, Fig. 1b, 1d) of the same compound?
Answer: VDR agonist activity, but with reduced potency

Question: What about the “HDACi activity, substrate deacetylation” value [2] of the same compound?
Answer: most potent

Question: And the “HDACi activity, substrate deacetylation” value [3]?
Answer: most potent

Question: And the “EdU incorporation at higher concentrations” value [4]?
Answer: completely abolished EdU incorporation

Question: And the “inhibition of proliferation, EdU incorporation” value ([5]; 1,25D-resistant SCC4 cells, Fig. 2e, f)?
Answer: completely

Question: And the “EdU incorporation at higher concentrations” value ([5]; SCC4 cells, higher concentrations)?
Answer: completely abolished EdU incorporation

Question: And the IC50 [6]?
Answer: 29.9 µM

Question: And the IC50 [7]?
Answer: 31.5 µM
